Read-outs that look alike come from different tables or passages of the source.
Experiments:
NS3/NS4 complexes = NS3/NS4 complexes (Hepatitis C virus genotype 1a, UniProt P27958); test: biochemical
Excerpt: NS3-NS4 inhibition activity can be determined using known assay methods. For example, NS3/NS4 complexes may be formed and inhibitory concentrations of test compounds determined as described in U.S. Patent Application Publication Number 2007/0054842 paragraph numbers 1497-1509, which is incorporated herein by reference in its entirety. Similarly, hepatitis C replicon EC50 may be determined using known assay methods such as described in U.S. Patent Application Publication Number 2007/0054842 paragraph numbers 1510-1515, which is incorporated herein by reference in its entirety. Assays may be conducted at ambient temperature (23° C.) in assay buffer containing 50 mM Tris-HCl, pH 7.5, 15% glycerol, 0.6 mM Lauryldimethylamine Oxide (LDAO), 25 μM NS4A peptide, and 10 mM Dithiothreitol (DTT).

hepatitis C replicon = hepatitis C replicon EC50 assay; type: cell-based; conditions: Hepatitis C virus
Excerpt: NS3-NS4 inhibition activity can be determined using known assay methods.

[1] = NS3-NS4 activity, 23° C., pH 7.5, 25 μM NS4A peptide, read-out: IC50
[2] = hepatitis C replicon, read-out: EC50

Sequence of NS3/NS4 complexes (P27958 1027-1657, one chain of several): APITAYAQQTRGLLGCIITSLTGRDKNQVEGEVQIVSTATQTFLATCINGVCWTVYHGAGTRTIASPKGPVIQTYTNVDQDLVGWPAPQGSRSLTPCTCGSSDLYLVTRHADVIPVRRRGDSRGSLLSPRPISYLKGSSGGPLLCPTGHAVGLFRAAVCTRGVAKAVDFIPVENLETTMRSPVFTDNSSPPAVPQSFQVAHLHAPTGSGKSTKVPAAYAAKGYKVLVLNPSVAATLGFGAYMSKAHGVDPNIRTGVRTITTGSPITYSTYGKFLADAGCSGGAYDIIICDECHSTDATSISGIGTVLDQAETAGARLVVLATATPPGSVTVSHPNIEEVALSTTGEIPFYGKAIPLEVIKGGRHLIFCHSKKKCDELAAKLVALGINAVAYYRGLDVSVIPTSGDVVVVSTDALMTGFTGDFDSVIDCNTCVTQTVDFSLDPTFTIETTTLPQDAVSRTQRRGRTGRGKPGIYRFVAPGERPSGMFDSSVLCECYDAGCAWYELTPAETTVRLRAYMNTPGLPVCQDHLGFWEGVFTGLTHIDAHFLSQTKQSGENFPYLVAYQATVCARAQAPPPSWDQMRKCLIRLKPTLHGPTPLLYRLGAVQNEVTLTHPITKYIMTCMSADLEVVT

| SMILES | IC50 (NS3/NS4 complexes; [1]) [nM] | EC50 (hepatitis C replicon; [2]) [nM] | EC50 (hepatitis C replicon) [nM] | IC50 (NS3/NS4 complexes) [nM] |
| --- | --- | --- | --- | --- |
| CC(C)n1c(O[C@@H]2C[C@H]3C(=O)N[C@]4(C(=O)NS(=O)(=O)C5CC5)C[C@H]4/C=C\CCCCC[C@H](NC(=O)OC(C)(C)C)C(=O)N3C2)nc2c(-c3nc(C4CCCCC4)cs3)cccc21 [Compound 172] | < 10 | < 10 |  |  |
| CC(C)c1csc(-c2cc(O[C@@H]3C[C@H]4C(=O)N[C@]5(C(=O)NS(=O)(=O)C6(C)CC6)C[C@H]5/C=C\CCCCC[C@H](N)C(=O)N4C3)ccn2)n1 [Compound 602] | < 10 | > 100 |  |  |
| CC(C)n1c(O[C@@H]2C[C@H]3C(=O)N[C@]4(C(=O)NS(=O)(=O)C5(C)CC5)C[C@H]4/C=C\CCCCC[C@H](NC(=O)OC(C)(C)C)C(=O)N3C2)nc2c(-c3csc(C(F)(F)F)n3)cccc21 [Compound 176] | < 10 | < 10 |  |  |
| CC(C)n1c(O[C@@H]2C[C@H]3C(=O)N[C@]4(C(=O)NS(=O)(=O)N(C)C)C[C@H]4/C=C\CCCCC[C@H](NC(=O)OC(C)(C)C)C(=O)N3C2)nc2c(-c3nc(Cc4cccc(C(F)(F)F)c4)cs3)cccc21 [Compound 149] | < 10 | 10 to 100 |  |  |
| CC(C)n1c(O[C@@H]2C[C@H]3C(=O)N[C@]4(C(=O)NS(=O)(=O)C5(C)CC5)C[C@H]4/C=C\CCCCC[C@H](NC(=O)OC(C)(C)C)C(=O)N3C2)nc2c(-c3cncc(N4CCCC4)n3)cccc21 [Compound 128] | < 10 | < 10 |  |  |
| CC(C)n1c(O[C@@H]2C[C@H]3C(=O)N[C@]4(C(=O)NS(=O)(=O)N(C)C)C[C@H]4/C=C\CCCCC[C@H](NC(=O)OC(C)(C)C)C(=O)N3C2)nc2c(-c3nc(-c4ccc(OC(F)(F)F)cc4)cs3)cccc21 [Compound 136] | < 10 | > 100 |  |  |
| COc1ccc2c(O[C@@H]3C[C@H]4C(=O)N[C@]5(C(=O)NS(=O)(=O)C6(C)CC6)C[C@H]5/C=C\CCCCC[C@H](NC(=O)OC(C)(C)C)C(=O)N4C3)cc(C(C)C)nc2c1C [Compound 501] | < 10 | < 10 |  |  |
| COc1cccc(Cc2csc(-c3cccc4c3nc(O[C@@H]3C[C@H]5C(=O)N[C@]6(C(=O)NS(=O)(=O)N(C)C)C[C@H]6/C=C\CCCCC[C@H](NC(=O)OC(C)(C)C)C(=O)N5C3)n4C(C)C)n2)c1 [Compound 152] | < 10 | < 10 |  |  |
| CC(C)n1c(O[C@@H]2C[C@H]3C(=O)N[C@]4(C(=O)NS(=O)(=O)C5(C)CC5)C[C@H]4/C=C\CCCCC[C@H](NC(=O)OC(C)(C)C)C(=O)N3C2)nc2c(-c3nc(Cc4ccc(-c5ccccc5)cc4)cs3)cccc21 [Compound 118] | < 10 | < 10 |  |  |
| CC(C)n1c(O[C@@H]2C[C@H]3C(=O)N[C@]4(C(=O)NS(=O)(=O)N(C)C)C[C@H]4/C=C\CCCCC[C@H](NC(=O)OC(C)(C)C)C(=O)N3C2)nc2c(-c3nc(Cc4cccc(Br)c4)cs3)cccc21 [Compound 153] | < 10 | 10 to 100 |  |  |
| CC(C)n1c(O[C@@H]2C[C@H]3C(=O)N[C@]4(C(=O)NS(=O)(=O)N(C)C)C[C@H]4/C=C\CCCCC[C@H](NC(=O)OC(C)(C)C)C(=O)N3C2)nc2c(-c3csc(-c4ccc(F)c(F)c4)n3)cccc21 [Compound 164] | 10 to 100 | > 100 |  |  |
| CC(C)n1c(O[C@@H]2C[C@H]3C(=O)N[C@]4(C(=O)NS(=O)(=O)N(C)C)C[C@H]4/C=C\CCCCC[C@H](NC(=O)OC(C)(C)C)C(=O)N3C2)nc2c(-c3nc(-c4ccc5c(c4)OCCO5)cs3)cccc21 [Compound 142] | < 10 | 10 to 100 |  |  |
| CC(C)(C)OC(=O)N[C@H]1CCCCC/C=C\[C@@H]2C[C@@]2(C(=O)NS(=O)(=O)C2(C)CC2)NC(=O)[C@@H]2C[C@@H](Oc3ccnc4c3CCCC4)CN2C1=O [Compound 403] | < 10 |  | 10 to 100 |  |
| CC(C)n1c(O[C@@H]2C[C@H]3C(=O)N[C@]4(C(=O)NS(=O)(=O)C5(C)CC5)C[C@H]4/C=C\CCCCC[C@H](NC(=O)O[C@@H]4C[C@@H]5C[C@@H]5C4)C(=O)N3C2)nc2c(-c3nc(Cc4ccccc4)cs3)cccc21 [Compound 166] | < 10 | < 10 |  |  |
| CC(C)c1csc(-c2nc3c(c(O[C@@H]4C[C@H]5C(=O)N[C@]6(C(=O)NS(=O)(=O)C7(C)CC7)C[C@H]6/C=C\CCCCC[C@H](NC(=O)OC(C)(C)C)C(=O)N5C4)n2)CCCC3)n1 [Compound 303] | 10 to 100 |  | 10 to 100 |  |
| Cc1ccccc1Cc1csc(-c2cccc3c2nc(O[C@@H]2C[C@H]4C(=O)N[C@]5(C(=O)NS(=O)(=O)C6(C)CC6)C[C@H]5/C=C\CCCCC[C@H](NC(=O)OC(C)(C)C)C(=O)N4C2)n3C(C)C)n1 [Compound 114] | < 10 | < 10 |  |  |
| COc1ccc(Cc2csc(-c3cccc4c3nc(O[C@@H]3C[C@H]5C(=O)N[C@]6(C(=O)NS(=O)(=O)C7(C)CC7)C[C@H]6/C=C\CCCCC[C@H](NC(=O)OC(C)(C)C)C(=O)N5C3)n4C(C)C)n2)cc1 [Compound 124] | < 10 | < 10 |  |  |
| CC(C)n1c(O[C@@H]2C[C@H]3C(=O)N[C@]4(C(=O)NS(=O)(=O)N(C)C)C[C@H]4/C=C\CCCCC[C@H](NC(=O)OC(C)(C)C)C(=O)N3C2)nc2c(-c3cnccn3)cccc21 [Compound 159] | < 10 | < 10 |  |  |
| CC(C)n1c(O[C@@H]2C[C@H]3C(=O)N[C@]4(C(=O)NS(=O)(=O)C5(C)CC5)C[C@H]4/C=C\CCCCC[C@H](NC(=O)OC(C)(C)C)C(=O)N3C2)nc2c(-c3cscn3)cccc21 [Compound 129] | < 10 | < 10 |  |  |
| CC(C)c1ccc(Cc2csc(-c3cccc4c3nc(O[C@@H]3C[C@H]5C(=O)N[C@]6(C(=O)NS(=O)(=O)N(C)C)C[C@H]6/C=C\CCCCC[C@H](NC(=O)OC(C)(C)C)C(=O)N5C3)n4C(C)C)n2)cc1 [Compound 148] | < 10 | 10 to 100 |  |  |
| CC(C)n1c(O[C@@H]2C[C@H]3C(=O)N[C@]4(C(=O)NS(=O)(=O)N(C)C)C[C@H]4/C=C\CCCCC[C@H](NC(=O)OC(C)(C)C)C(=O)N3C2)nc2c(-c3nc(-c4ccc(F)c(C(F)(F)F)c4)cs3)cccc21 [Compound 135] | < 10 | > 100 |  |  |
| Cc1cccc(Cc2csc(-c3cccc4c3nc(O[C@@H]3C[C@H]5C(=O)N[C@]6(C(=O)NS(=O)(=O)N(C)C)C[C@H]6/C=C\CCCCC[C@H](NC(=O)OC(C)(C)C)C(=O)N5C3)n4C(C)C)n2)c1 [Compound 144] | < 10 | < 10 |  |  |
| CC(C)n1c(O[C@@H]2C[C@H]3C(=O)N[C@]4(C(=O)NS(=O)(=O)C5(C)CC5)C[C@H]4/C=C\CCCCC[C@H](NC(=O)OC(C)(C)C)C(=O)N3C2)nc2c(-c3nc(C4CCCCC4)cs3)cccc21 [Compound 179] | < 10 |  | < 10 |  |
| Cc1nc2cccc(-c3nc(C4CCCCC4)cs3)c2nc1O[C@@H]1C[C@H]2C(=O)N[C@]3(C(=O)NS(=O)(=O)C4(C)CC4)C[C@H]3/C=C\CCCCC[C@H](NC(=O)OC(C)(C)C)C(=O)N2C1 [Compound 703] | < 10 | < 10 |  |  |
| CC(C)n1c(O[C@@H]2C[C@H]3C(=O)N[C@]4(C(=O)NS(=O)(=O)C5(C)CC5)C[C@H]4/C=C\CCCCC[C@H](NC(=O)OC(C)(C)C)C(=O)N3C2)nc2c(-c3nc(C4CCNCC4)cs3)cccc21 [Compound 182] |  |  | 10 to 100 | < 10 |
| CC(C)(C)OC(=O)N[C@H]1CCCCC/C=C\[C@@H]2C[C@@]2(C(=O)NS(=O)(=O)C2(C)CC2)NC(=O)[C@@H]2C[C@@H](Oc3nc(-c4ccccc4)nc4c3CCCC4)CN2C1=O [Compound 302] | < 10 | < 10 |  |  |

Reference: patent US20120101032A1, “NOVEL MACROCYCLIC INHIBITORS OF HEPATITIS C VIRUS REPLICATION” (priority 2010, published 2012)
